The nature of data set [1]: In vitro stability of radioiodinated ligand. In kind it is physicochemical. The following applies: prolonged standing (>20 hr) at 0-4° C. in saline solution.
The test system of data set [2] is serotonin transporters. The data set is described as follows: SPECT imaging in baboons. The following applies: baboon, 120 minutes post-i.v. injection. An excerpt:
The acquisition of SPECT images were obtained by a triple-head gamma camera equipped with ultra high resolution fan-beam collimators (Picker Prism 3000). […] The projection images were reconstructed by filtered-back projection. Then, a 3D, low pass Butterworth filter was applied. For uniform attenuation correction, Chang's first order method was used.

The target of data set [3] is T1, serotonin uptake (SERT) (Rattus norvegicus, UniProt P31652).
T1 construct: host or cells: rat brain synaptosomes
T1 sequence (P31652 whole entry): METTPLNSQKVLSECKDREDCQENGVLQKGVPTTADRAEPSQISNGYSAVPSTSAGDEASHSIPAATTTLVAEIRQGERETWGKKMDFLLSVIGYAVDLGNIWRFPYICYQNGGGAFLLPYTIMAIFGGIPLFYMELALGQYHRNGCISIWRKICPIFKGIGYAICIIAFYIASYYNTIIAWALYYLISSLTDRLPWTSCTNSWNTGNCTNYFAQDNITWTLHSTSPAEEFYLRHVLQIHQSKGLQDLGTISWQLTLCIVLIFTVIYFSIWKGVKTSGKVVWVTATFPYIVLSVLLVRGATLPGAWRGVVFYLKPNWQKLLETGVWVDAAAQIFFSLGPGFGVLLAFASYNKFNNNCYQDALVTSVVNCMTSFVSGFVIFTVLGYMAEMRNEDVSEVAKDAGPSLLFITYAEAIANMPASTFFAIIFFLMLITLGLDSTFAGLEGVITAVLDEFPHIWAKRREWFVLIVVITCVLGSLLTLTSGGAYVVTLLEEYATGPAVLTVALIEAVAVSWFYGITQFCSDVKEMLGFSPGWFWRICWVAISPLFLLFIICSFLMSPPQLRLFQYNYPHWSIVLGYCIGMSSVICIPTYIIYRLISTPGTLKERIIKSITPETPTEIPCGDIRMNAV
The conditions noted are these: taken from Ferris et al. 1995; read-out: IC50 for inhibition on substrate uptake, SERT; cited from earlier work.

The target in data set [4] is T2, norepinephrine uptake (NET) (Rattus norvegicus, UniProt Q63380).
T2 construct: host or cells: rat brain synaptosomes
T2 sequence (Q63380 1-617): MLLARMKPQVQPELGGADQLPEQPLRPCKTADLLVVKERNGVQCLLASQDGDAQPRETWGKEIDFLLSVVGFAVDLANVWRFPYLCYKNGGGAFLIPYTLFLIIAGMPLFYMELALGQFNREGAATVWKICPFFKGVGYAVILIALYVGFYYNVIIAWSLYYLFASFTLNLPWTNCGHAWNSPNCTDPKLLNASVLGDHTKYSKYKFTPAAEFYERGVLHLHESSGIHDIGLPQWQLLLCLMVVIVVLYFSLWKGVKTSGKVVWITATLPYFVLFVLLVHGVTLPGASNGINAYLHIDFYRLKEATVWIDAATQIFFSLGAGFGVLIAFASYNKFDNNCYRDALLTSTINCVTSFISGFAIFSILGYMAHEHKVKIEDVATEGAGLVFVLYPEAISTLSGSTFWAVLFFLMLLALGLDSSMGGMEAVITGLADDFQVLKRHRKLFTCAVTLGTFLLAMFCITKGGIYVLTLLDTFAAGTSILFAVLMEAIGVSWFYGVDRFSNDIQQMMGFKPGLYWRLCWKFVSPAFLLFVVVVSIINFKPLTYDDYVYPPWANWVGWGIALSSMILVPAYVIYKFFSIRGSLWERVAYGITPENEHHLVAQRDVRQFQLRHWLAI
The following applies: cited from earlier work.

The target in data set [5] is DAT (Rattus norvegicus, UniProt P23977). The following applies: taken from Ferris et al. 1995; read-out: IC50 for inhibition on substrate uptake, DAT; cited from earlier work.
DAT, sequence (P23977 whole entry): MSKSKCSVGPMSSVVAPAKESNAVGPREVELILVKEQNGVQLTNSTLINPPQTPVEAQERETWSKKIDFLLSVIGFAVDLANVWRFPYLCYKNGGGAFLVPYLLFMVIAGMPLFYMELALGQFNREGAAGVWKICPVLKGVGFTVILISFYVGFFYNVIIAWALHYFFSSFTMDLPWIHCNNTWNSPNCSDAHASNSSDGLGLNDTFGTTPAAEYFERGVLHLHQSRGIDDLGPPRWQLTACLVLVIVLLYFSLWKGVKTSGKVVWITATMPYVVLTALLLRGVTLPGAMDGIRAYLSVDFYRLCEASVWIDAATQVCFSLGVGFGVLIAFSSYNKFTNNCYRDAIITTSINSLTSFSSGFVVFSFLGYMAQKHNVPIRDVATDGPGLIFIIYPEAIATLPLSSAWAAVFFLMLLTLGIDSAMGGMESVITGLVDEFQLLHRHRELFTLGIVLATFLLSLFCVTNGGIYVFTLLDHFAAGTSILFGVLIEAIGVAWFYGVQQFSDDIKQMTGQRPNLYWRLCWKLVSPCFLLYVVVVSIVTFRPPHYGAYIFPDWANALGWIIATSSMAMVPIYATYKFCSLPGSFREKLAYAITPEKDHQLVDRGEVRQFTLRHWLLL

Turning to `CN(C)Cc1ccccc1Sc1ccc(I)cc1CO` [[^123I]IDAM], the in vitro stability entry in data set [1] is given as “no decomposition observed”. Besides, the “ratio of MB/CER uptake” value in data set [2] was 2.4.

As to `CN(C)Cc1ccccc1Sc1ccc(Cl)cc1CO` [403U76, 5-chloro-2-((2-((dimethyl-amino)methyl)phenyl)thio)benzyl alcohol], the IC50 (usually the concentration that gives 50% inhibition) in data set [3] is 2.1 ± 0.4 nM; in data set [4] (taken from Ferris et al. 1995, read-out: IC50 for inhibition on substrate uptake, NET), 55 ± 10 nM; in data set [5], over 1000 nM. In data set [4] (rat brain synaptosomes), the Ki (as a rule, a measure of affinity in units of concentration, obtained from inhibition or displacement) is 55 nM.

Values taken from patent publication US6921840B1 (The Trustees of the University of Pennsylvania, priority 1999, dated 2005).
